PMC5567816 (ACS chemical biology, 2017)
Entries after “also recorded” stand apart in the source; their conditions may differ.

Tests used:
Hek293 lysates = test: deacylase activities of Hek293 lysates with inhibitors; format: cell-based; details: 24 h; vorinostat and PD-106 1 μM, tubA 0.5 μM
Hek293 cells [1] = test: global formylation levels of Hek293 cells; format: cell-based; details: inhibitors 1 μM, tubA 0.5 μM, 24 h
HDAC6 = HDAC6 specific inhibitor; cited from earlier work
Hek293 cells [2] = test: global valerylation levels of Hek293 cells; format: cell-based; details: inhibitors 1 μM, tubA 0.5 μM, 24 h
HCT116 and HT29 cells = details: 2 μM for 24 h; cited from earlier work
Hek293 cells [3] = test: Western blot of Hek293 cells, histone and tubulin acetylation; format: cell-based; details: inhibitors 1 μM, tubA 0.5 μM, 24 h
RAW264.7 cells [4] = test: Western blot of RAW264.7 cells, protein acetylation; format: cell-based; details: tubA at 0.5 μM
class IIa HDACs = details: cited from earlier work
RAW264.7 cells [5] = test: cell viability of RAW264.7 cells; format: cell-based
RAW264.7 macrophages = test: NO production in LPS-challenged RAW264.7 macrophages; format: cell-based; details: 1 μM; decrease completely offset when normalized
A549 cell line = details: reasonable concentrations; cited from earlier work
HDAC3 = HDAC3 (Homo sapiens, UniProt O15379); test: HDAC3 coincubated with TFA substrate and inhibitor
Sequence of HDAC3 (O15379 whole entry): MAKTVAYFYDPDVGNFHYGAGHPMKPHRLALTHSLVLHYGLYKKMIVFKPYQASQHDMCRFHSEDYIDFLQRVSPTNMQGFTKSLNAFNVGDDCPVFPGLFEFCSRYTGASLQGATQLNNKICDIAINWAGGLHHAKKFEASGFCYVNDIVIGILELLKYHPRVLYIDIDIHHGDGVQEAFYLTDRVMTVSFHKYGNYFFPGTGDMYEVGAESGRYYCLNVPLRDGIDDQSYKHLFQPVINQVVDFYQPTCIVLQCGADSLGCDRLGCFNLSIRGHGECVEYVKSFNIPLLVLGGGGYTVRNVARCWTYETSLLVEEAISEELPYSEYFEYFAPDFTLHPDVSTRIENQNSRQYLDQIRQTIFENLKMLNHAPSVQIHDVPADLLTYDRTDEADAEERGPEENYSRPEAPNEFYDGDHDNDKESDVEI
Sequence of HDAC3 (Q9Y618 395-489 partner limits assumed): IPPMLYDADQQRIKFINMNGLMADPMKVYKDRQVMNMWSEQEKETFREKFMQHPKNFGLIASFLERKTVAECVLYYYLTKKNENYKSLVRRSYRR

RAW264.7 cells [6] = test: p65 and HDAC3 subcellular localization in LPS-treated RAW264.7 cells; format: cell-based; details: after LPS treatment
RAW264.7 cells [7] = test: HMGB-1 secretion from activated RAW264.7 cells; format: cell-based; details: LPS-activated RAW264.7; 6 h

SMILES | deacetylase activity of Hek293 lysates (Hek293 lysates) | deformylase activity of Hek293 lysates (Hek293 lysates) | devalerylase activity of Hek293 lysates (Hek293 lysates) | global protein formylation (Hek293 cells [1]) | IC50 (HDAC6) | global protein valerylation (Hek293 cells [2]) | p53 Lys382 acetylation (HCT116 and HT29 cells) | histone H3 and H4 acetylation (Hek293 cells [3]) | tubulin acetylation (Hek293 cells [3]) | p53 Lys382 acetylation (RAW264.7 cells [4]) | inhibitory activity for class IIa HDACs (class IIa HDACs) | lethality (cell viability) (RAW264.7 cells [5]) | NO release, before normalization to cell count/viability (RAW264.7 macrophages) | p53 Lys373 and Lys382 acetylation (A549 cell line) | effect on HDAC3's ability to deacylate the TFA substrate (HDAC3) | nuclear localization of HDAC3 (RAW264.7 cells [6]) | HMGB-1 secretion (RAW264.7 cells [7])
CN1CCc2c(c3ccccc3n2Cc2ccc(C(=O)NO)cc2)C1 [Tubastatin A] | did not affect overall deacetylation activity; also recorded: no effect on deacetylation or devalerylation | did lower deformylation activity | no effect on deacetylation or devalerylation | induced global protein hyperformylation | […] | nonsignificant hypovalerylation | able to induce hyperacetylation of Lys382 | only affected acetylated tubulin levels | only affected acetylated tubulin levels | do not demonstrate this increase |  |  |  |  |  |  | 
O=C(NO)C(c1ccccc1)c1ccccc1 [dPAHA, diphenyl acetic hydroxamic acid] |  |  |  |  |  |  |  |  |  |  | only possesses the ability to inhibit class IIa HDACs |  |  |  |  |  | 
Nc1ccccc1NC(=O)c1ccc(CNC(=O)OCc2cccnc2)cc1 [entinostat] |  |  |  | also capable of this effect |  | global protein hypervalerylation |  | induced hyperacetylation of histones | without affecting tubulin acetylation levels |  |  | more lethal than 2a–2c | did lower NO release |  |  |  | 
C/C=C1\NC(=O)[C@H]2CSSCC/C=C/[C@H](CC(=O)N[C@H](C(C)C)C(=O)N2)OC(=O)[C@H](C(C)C)NC1=O [romidepsin] |  |  |  |  |  |  |  |  |  |  |  |  |  | induce hyperacetylation of Lys373 and Lys382 |  |  | 
O=C(CCCCCCC(=O)Nc1ccccc1)NO [vorinostat] | inhibit both deacetylation and deformylation; also recorded: lowering in both deacetylation and devalerylation | inhibit both deacetylation and deformylation | lowering in both deacetylation and devalerylation | caused global protein hyperformylation |  | global protein hypervalerylation |  | induced hyperacetylation of tubulin and histones H3 and H4 | induced hyperacetylation of tubulin and histones H3 and H4 |  |  | more lethal than 2a–2c | did lower NO release |  | capable of altering HDAC3’s ability to deacylate the TFA substrate | not as pronounced | prevents HMGB-1 secretion
